In patent publication US7629169B2, “Methods for the production of platelet-derived growth factor-responsive neural precursor cells” (Stem Cell Therapeutics Corp., priority 2004, dated 2009):

What was measured:
[1] = system: PDGF-responsive neural precursors (PRPs) from dissociated E14 MGE/LGE; assay: Primary neurosphere generation from dissociated E14 ganglionic eminences; assay type: cell-based, mouse
Method: Cell culture. The culture medium (MHM) was composed of DMEM/F-12 (1:1) including HEPES buffer (5 mM), glucose (0.6%), sodium bicarbonate (3 mM), glutamine (2 mM), insulin (25 μg/ml), transferrin (100 μg/ml), progesterone (20 nM), putrescine (10 μM), and sodium selenite (30 nM; all from Sigma, St. Louis, Mo., except glutamine from Invitrogen, Carlsbad, Calif.). The lateral, medial, or both ganglionic eminences (LGE, MGE or both) were removed from Embryonic Day 14 (E14) mouse embryos and mechanically dissociated with a fire-polished Pasteur pipette in MHM. Cells were plated at a density of […] unless otherwise indicated.
For neurosphere generation, PDGF-AA (100 ng/ml; Peprotech, Rocky Hill, N.J.), PDGF-BB (100 ng/ml; Peprotech), EGF (20 ng/ml; Peprotech), FGF2 (20 ng/ml; R&D [Minneapolis, Minn.])+heparan sulfate (2 μg/ml; HS; R&D), SHH (2 ug/ml; R&D), cyclopamine (5 μM; Toronto Research Chemicals, North York, Ontario), and/or DMSO (0.1%; carrier) was added to the MHM. MHM used to generate neurospheres also contained 2% B27 (Invitrogen).
[…] is one of the earliest markers of OLPs, and signaling by PDGF-AA is required for the generation of most oligodendrocytes (Fruttiger et al., Development 126:457 (1999)). Increasing concentrations of PDGF-AA were used to determine whether stimulation of dissociated E14 medial and lateral ganglionic eminences. (MGE and LGE, respectively) results in generation of neurospheres. The neurosphere assay was used because manipulation of primary cells is minimal compared to the immunopanning procedures used to isolate O-2A progenitors.
The effect of brain-derived neurotrophic factor (BDNF), neurotrophin-3 (NT-3), and nerve growth factor (NGF) on PRPs was determined. Cells were cultured as previously reported (Chojnacki et al., J Neurosci 24(48):10888 2004) in the presence of various combinations of PDGF, brain-derived neurotrophic factor (BDNF), NT-3, nerve growth factor (NGF), and the effects on neurosphere generation characterized. MHM is the defined medium used in cultures without growth factor.

[2] = system: NSC; assay: FGF2-induced NSC proliferation; assay type: cell-based; details: 1 μM SU5402
[3] = system: dissociated E14 MGEs; assay: Clonality test: GFP and CD1 E14 MGE cells co-cultured 1:1 in PDGF-AA; assay type: cell-based, mouse; details: 100 ng/ml PDGF-AA, 20,000 cells/ml, GFP:CD1 1:1
Source text: PDGF is also known to have chemotaxic effects on cortical NSCs (Forsberg-Nilsson et al., J Neurosci Res 53:521 (1998)), and thus it was possible that neurospheres generated under PDGF stimulation resulted from the directed migration of NSCs along the culture dish into clumps that resembled clonally-derived neurospheres. This possibility was studied, as previously described (Represa et al., Eur J Neurosci 14:452 (2001)), by culturing dissociated E14 MGEs from CD1 and TgN(GFPU)5Nagy (ubiquitous green fluorescent protein [GFP]-expressing) mice together, 1:1, at 20,000 cells/ml, and in the presence of 100 ng/ml of PDGF-AA. If cell clumping generates the majority of the neurospheres, then most neurospheres should contain both GFP- and non-GFP-expressing cells. However, 95±11% of the neurospheres were not chimeric for GFP expression (p<0.01; Tukey HSD; n=3) (FIGS. 1C-D), and there was no difference in the number of GFP- or non-GFP-expressing neurospheres produced (p>0.65; Tukey HSD; n=3) (FIG. 1D).

[4] = system: PRPs (single primary neurospheres); assay: Self-renewal by single sphere dissociation (secondary neurospheres); assay type: cell-based; details: for secondary neurospheres per single primary PDGF-generated neurosphere: passaged into the named factor(s)
Method: Self-renewal capacity was examined by single sphere dissociation. Briefly, single 6 DIV neurospheres of equivalent size that were generated in the presence of EGF, PDGF-AA, or PDGF-AA and SHH were transferred into 96 well plates and mechanically dissociated. Dissociates were cultured in MHM supplemented with EGF, FGF2 (includes 2 μg/ml HS), FGF2 and SHH, PDGF-AA, PDGF-AA and SHH, PDGF-AA and FGF2, PDGF-AA and FGF2 and SHH, PDGF-AA and DMSO (0.1%), PDGF-AA and SHH, or PDGF-AA and FGF2 and cyclopamine. The number of secondary neurospheres generated was counted after 9 DIV.

[5] = system: PRPs; assay: GFP-expressing PDGF neurosphere dissociates plated on EGF-generated feeder layer; assay type: cell-based, mouse; details: PDGF with EGF feeder layer
Source text: To determine if extrinsic factors could promote self-renewal of PRPs, individual, 7 DIV, GFP-expressing, PDGF-generated neurospheres were isolated, dissociated in the presence of PDGF-AA, and differentiated on coverslips that had been plated 2 days earlier with or without 0.2×10^6 cells/ml of EGF-generated cells from dissociated primary EGF neurospheres. EGF-generated feeder cells had been allowed to differentiate for 2 days in the presence of 1% FBS. Plates were rinsed 3× with MHM prior to the addition of GFP-expressing, PDGF-generated dissociates. Numbers of adherent clones and cells per clone were assessed by GFP expression. All images were captured with a Photometrics Coolsnap digital camera (Tuscon, Ariz.) mounted on a Leica Microsystems DMIL inverted fluorescence microscope with Coolsnap V1.2.0 software.
However, these studies employed a defined culture media in which some factors required for self-renewal may be missing. To further study PRP self-renewal, primary PDGF neurospheres from the E14 MGEs of TgN(GFPU)5Nagy mice were grown for 7 DIV, individual neurospheres dissociated and transferred from single neurospheres onto poly-L-omithine coated coverslips that had been plated with or without 200,000 primary 7 DIV EGF-generated progeny 2 days earlier.

[6] = system: PDGF-generated neurospheres; assay: Differentiation of primary PDGF-AA-generated neurospheres, immunocytochemistry; assay type: cell-based, mouse
[7] = 6 DIV neurospheres differentiated 3 DIV

In the case of `Cc1c[nH]c(/C=C2\C(=O)Nc3ccccc32)c1CCC(=O)O` [SU5402, reference compound], the “primary PDGF neurosphere formation” value ([1]; 1 μM SU5402) is reported as “unaffected” and the “block of FGF2-induced NSC proliferation” value [2] is reported as 90%.
In the case of “PDGF-AA: platelet-derived growth factor AA, 100 ng/ml; Peprotech”, the “neurospheres not chimeric for GFP expression” value [3] is reported as 95±11%, the “secondary neurospheres per single primary EGF-generated neurosphere” value ([4]; passaged into PDGF-AA) is reported as 26±5 and the “secondary neurospheres per single primary PDGF-generated neurosphere” value [4] is reported as 1±1. The neurospheres produced ([1]; 100 ng/ml PDGF-AA, dissociated E14 MGE and LGE, n=3) was 12±1 neurospheres per 10,000 plated cells, the “number of primary neurospheres generated” value ([1]; dissociated MGEs, SHH 2 μg/ml, n=8) was 60±9 and the “neurosphere production versus concentration” value ([1]; increasing concentrations of PDGF-AA) was “induced neurosphere production in a dose-dependent manner”. The “adherent GFP-labeled clones” value [5] was “many clones of GFP-labeled cells that contained greater than 10 cells”.
For “FGF2: fibroblast growth factor 2, 20 ng/ml, with heparan sulfate 2 μg/ml”, the “secondary neurospheres per single primary PDGF-generated neurosphere” value [4] was 3±1 and the “secondary neurospheres / self-renewal compared with passage in PDGF” value ([4]; primary PDGF-generated neurospheres passaged into the named factor(s)) was “No increase in self-renewal”.
In the case of “EGF: epidermal growth factor, 20 ng/ml; Peprotech (NSDSECPLSHDGYCLHDGVCMYIEALDKYACNCVVGYIGERCQYRDLKWWELR; Epidermal growth factor; UniProt P01133 971-1023, looked up)”, the “secondary neurospheres per single primary PDGF-generated neurosphere” value [4] is reported as 3±1.
For `N[C@@H](Cc1cc(I)c(Oc2ccc(O)c(I)c2)c(I)c1)C(=O)O` [T3, triiodothyronine], the “increase in differentiation of oligodendrocytes (O4)” value ([6]; 20 ng/ml T3, 2 DIV, vs 1% FBS) was 5 fold, the MBP-only clones ([6]; 2 DIV) was “increased the number of MBP-only clones” and the “MBP-expressing cells produced per clone” value ([6]; 2 DIV, vs 1% FBS, BMP-2, and T3 and BMP-2) was “significantly increased the number of MBP-expressing cells produced per clone”. For the same compound, the “GFAP-immunoreactive astrocytes per neurosphere” value [6, 7] was “no astrocytes” and the “MBP-immunoreactive oligodendrocytes per neurosphere” value [6, 7] was 3.9±0.4.
For `CC1=C2C[C@H]3[C@@H](CC=C4C[C@@H](O)CC[C@@]43C)[C@@H]2CC[C@]12O[C@@H]1C[C@H](C)CN[C@H]1[C@H]2C` [cyclopamine, reference compound], the “secondary neurospheres per primary PDGF-generated neurosphere” value ([4]; cyclopamine added to PDGF and FGF2) was 3±1, the neurosphere size ([1]; 5 μM cyclopamine with 100 ng/ml PDGF-AA) was “smaller” and the “reduction in number of PDGF-AA-generated neurospheres” value ([1]; 5 μM cyclopamine with 100 ng/ml PDGF-AA, MGE 10,000 cells/ml, vs PDGF-AA+DMSO) was 5 fold. The non-specific toxic effect ([1]; 5 μM cyclopamine, phase-bright differentiating cells present) was “likely not a result of a non-specific toxic effect”.
